The text below walks through data of patent US9855230B2 (ViiV Healthcare UK (No. 5) Limited, priority 2014, dated 2018).

Where a name gives a salt, the structure may show the parent alone. Read-outs that look alike come from different tables or passages of the source.

Data set [1] concerns recombinant NL4-3 virus (nef section replaced with Renilla luciferase gene) in MT-2 cells. The experiment in a line: whole plant or invertebrate. The format is cell-based, HIV. Conditions: NL43, luciferase activity in MT-2 cells infected 4-5 days with recombinant NL4-3 virus. From the text: A recombinant NL4-3 proviral clone, in which a section of the nef gene was replaced with the Renilla luciferase gene, was used to make the reference virus used in these studies.
Supernatent was harvested after 2-3 days and the amount of virus present was titered in MT-2 cells using luciferase enzyme activity as a marker by measuring luciferase enzyme activity. Luciferase was quantitated using the EnduRen Live Cell Substrate from Promega (Madison, Wis.). Antiviral activities of compounds toward the recombinant virus were quantified by measuring luciferase activity in MT-2 cells infected for 4-5 days with the recombinant virus in the presence of serial dilutions of the compound.

The nature of data set [2]: Compound cytotoxicity (CC50), XTT-based colorimetric assay. The format is cell-based. To be noted: human; uninfected MT2 cells, day 4, XTT assay. As for the experimental part: Compound cytotoxicity and the corresponding CC50 values were determined using the same protocol as described in the antiviral assay except that uninfected cells were used. Cytotoxicity was assessed on day 4 in uninfected MT2 cells by using a XTT (2,3-bis[2-Methoxy-4-nitro-5-sulfophenyl]-2H-tetrazolium-5-carboxyanilide inner salt)-based colorimetric assay (Sigma-Aldrich, St Louis, Mo.).

On to `COc1ccc(-n2ccnc2C(Cc2cc(F)cc(F)c2)NC(=O)NS(=O)(=O)c2ccccc2F)cc1` (racemic) [Example 84, (rac)-N-((2-(3,5-difluorophenyl)-1-(1-(4-methoxyphenyl)-1H-imidazol-2-yl)ethyl)carbamoyl)-2-fluorobenzenesulfonamide], for which the values for the EC50 in data set [1] (read-out: Activity) and in data set [1] (read-out: EC50) were 100 to 1000 nM and 690 nM, respectively. In addition, the CC50 at 4 day in data set [2] was more than 100000 nM.

With `COc1ccc(-c2c(C(Cc3ccccc3)NC(=O)NS(=O)(=O)c3ccccc3C)nnn2C)cc1` (racemic) [Example 87, (rac)-N-((1-(5-(4-methoxyphenyl)-1-methyl-1H-1,2,3-triazol-4-yl)-2-phenylethyl)carbamoyl)-2-methylbenzenesulfonamide], the EC50 in data set [1] (read-out: Activity) is 100 to 1000 nM; in data set [1] (read-out: EC50), 220 nM. The CC50 at 4 day in data set [2] is more than 100000 nM.

As for `O=C(NC(Cc1ccccc1)c1ncccc1-c1ccc2ccncc2c1)NS(=O)(=O)c1ccccc1Cl` (stereo in doubt) [Example 108, (S)-2-chloro-N-((1-(3-(isoquinolin-7-yl)pyridin-2-yl)-2-phenylethyl)carbamoyl)benzenesulfonamide, 2 TFA], the EC50 in data set [1] (read-out: Activity) is more than 1000 nM; in data set [1] (read-out: EC50), 20000 nM. The half-maximal cytotoxic concentration (CC50) at 4 day in data set [2] is more than 100000 nM.

In the case of `O=C(NC(Cc1cc(F)cc(F)c1)c1ncccc1Br)NS(=O)(=O)c1ccccc1Cl` (stereo in doubt) [Example 113, (S)-N-((1-(3-bromopyridin-2-yl)-2-(3,5-difluorophenyl)ethyl)carbamoyl)-2-chlorobenzenesulfonamide, TFA], the EC50 in data set [1] (read-out: Activity) was more than 1000 nM. In addition, the CC50 at 4 day in data set [2] is more than 100000 nM.

As for `COc1ccc(-c2cccnc2C(Cc2cc(F)cc(F)c2)NC(=O)NS(=O)(=O)c2ccccc2Cl)cc1` (stereo in doubt) [Example 114, (S)-2-chloro-N-((2-(3,5-difluorophenyl)-1-(3-(4-methoxyphenyl)pyridin-2-yl)ethyl)carbamoyl)benzenesulfonamide, TFA], the EC50 in data set [1] (read-out: Activity) was more than 1000 nM; in data set [1] (read-out: EC50), 34400 nM. For the same compound, the cytotoxic concentration (CC50) at 4 day in data set [2] is more than 100000 nM.

With `COc1ccc(-n2ccnc2[C@H](Cc2ccccc2)NC(=O)NS(=O)(=O)c2ccccc2C)cc1` [Example 1, (S)-N-((1-(1-(4-methoxyphenyl)-1H-imidazol-2-yl)-2-phenylethyl)carbamoyl)-2-methylbenzene-sulfonamide], the EC50 in data set [1] (read-out: Activity) was less than 100 nM. In addition, in data set [2], the half-maximal cytotoxic concentration (CC50) at 4 day is more than 100000 nM.

Take `COC(=O)Nc1ccc(-n2ccnc2[C@H](Cc2ccccc2)NC(=O)NS(=O)(=O)c2ccccc2C)cc1` [Example 2, (S)-methyl (4-(2-(2-phenyl-1-(3-(o-tolylsulfonyl)ureido)ethyl)-1H-imidazol-1-yl)phenyl)carbamate]: the EC50 in data set [1] (read-out: Activity) was less than 100 nM. For the same compound, the 50% cytotoxic concentration (CC50) at 4 day in data set [2] is more than 100000 nM.

On to `COC(=O)Nc1ccc(-n2ccnc2[C@H](Cc2ccccc2)NC(=O)NS(=O)(=O)c2cccc3ccccc23)cc1` [Example 3, (S)-methyl (4-(2-(1-(3-(naphthalen-1-ylsulfonyl)ureido)-2-phenylethyl)-1H-imidazol-1-yl)phenyl)carbamate], for which the EC50 was 100 to 1000 nM in data set [1] (read-out: Activity) and 100 nM in data set [1] (read-out: EC50). Also, the cytotoxic concentration (CC50) at 4 day in data set [2] was more than 100000 nM.

In the case of `Cc1ccccc1S(=O)(=O)NC(=O)N[C@@H](Cc1ccccc1)c1nccn1-c1cccc(-n2cccc2)c1` [Example 4, (S)-N-((1-(1-(3-(1H-pyrrol-1-yl)phenyl)-1H-imidazol-2-yl)-2-phenylethyl)carbamoyl)-2-methyl-benzenesulfonamide], the EC50 in data set [1] (read-out: Activity) was more than 1000 nM. This compound displayed a cytotoxic concentration (CC50) at 4 day in data set [2] of more than 100000 nM.

Consider `Cc1ccccc1S(=O)(=O)NC(=O)N[C@@H](Cc1ccccc1)c1nccn1-c1ccc(F)cc1` [Example 5, (S)-N-((1-(1-(4-fluorophenyl)-1H-imidazol-2-yl)-2-phenylethyl)carbamoyl)-2-methylbenzenesulfonamide], for which the EC50 in data set [1] (read-out: Activity) was in the range of 100 to 1000 nM. The same compound yielded a CC50 at 4 day in data set [2] of more than 100000 nM.

Consider `COc1ccc(-n2ccnc2[C@H](Cc2ccccc2)NC(=O)NS(=O)(=O)c2ccccc2Cl)cc1` [Example 6, (S)-2-chloro-N-((1-(1-(4-methoxyphenyl)-1H-imidazol-2-yl)-2-phenylethyl)carbamoyl)benzenesulfonamide], for which the values for the EC50 in data set [1] (read-out: Activity) and in data set [1] (read-out: EC50) were less than 100 nM and 50 nM, respectively. The CC50 at 4 day in data set [2] is more than 100000 nM.

In the case of `CCOc1ccc(-n2ccnc2[C@H](Cc2ccccc2)NC(=O)NS(=O)(=O)c2ccccc2C)cc1` [Example 7, (S)-N-((1-(1-(4-ethoxyphenyl)-1H-imidazol-2-yl)-2-phenylethyl)carbamoyl)-2-methylbenzenesulfonamide], the EC50 in data set [1] (read-out: Activity) is less than 100 nM. In data set [2], the 50% cytotoxic concentration (CC50) at 4 day is more than 100000 nM.

Consider `COc1ccc(-n2ccnc2[C@H](Cc2ccccc2)NC(=O)NS(=O)(=O)c2ccccc2C)c(C)c1` [Example 8, (S)-N-((1-(1-(4-methoxy-2-methylphenyl)-1H-imidazol-2-yl)-2-phenylethyl)carbamoyl)-2-methylbenzenesulfonamide], for which, in data set [1] (read-out: Activity), the EC50 lay within 100 to 1000 nM. For the same compound, in data set [2], the half-maximal cytotoxic concentration (CC50) at 4 day is more than 100000 nM.

For `COc1cccc(-n2ccnc2[C@H](Cc2ccccc2)NC(=O)NS(=O)(=O)c2ccccc2C)c1` [Example 9, (S)-N-((1-(1-(3-methoxyphenyl)-1H-imidazol-2-yl)-2-phenylethyl)carbamoyl)-2-methylbenzenesulfonamide], the values for the EC50 in data set [1] (read-out: Activity) and in data set [1] (read-out: EC50) were less than 100 nM and 50 nM, respectively. Further, the CC50 at 4 day in data set [2] is more than 100000 nM.

With `COc1ccc(-n2ccnc2[C@H](Cc2ccccc2)NC(=O)NS(=O)(=O)c2ccccc2C)cc1OC` [Example 10, (S)-N-((1-(1-(3,4-dimethoxyphenyl)-1H-imidazol-2-yl)-2-phenylethyl)carbamoyl)-2-methylbenzenesulfonamide], the EC50 in data set [1] (read-out: Activity) was less than 100 nM. The compound further had a CC50 at 4 day in data set [2] of more than 100000 nM.

Take `Cc1ccccc1S(=O)(=O)NC(=O)N[C@@H](Cc1ccccc1)c1nccn1-c1ccc(OC(F)(F)F)cc1` [Example 11, (S)-2-methyl-N-((2-phenyl-1-(1-(4-(trifluoromethoxy)phenyl)-1H-imidazol-2-yl)ethyl)carbamoyl)benzenesulfonamide]: in data set [1] (read-out: Activity), the EC50 is less than 100 nM. In addition, the CC50 at 4 day in data set [2] amounted to 59000 nM.

On to `Cc1ccccc1S(=O)(=O)NC(=O)N[C@@H](Cc1ccccc1)c1nccn1-c1cccc(Cl)c1` [Example 12, (S)-N-((1-(1-(3-chlorophenyl)-1H-imidazol-2-yl)-2-phenylethyl)carbamoyl)-2-methylbenzenesulfonamide], for which the EC50 was less than 100 nM in data set [1] (read-out: Activity) and 50 nM in data set [1] (read-out: EC50). For the same compound, the CC50 at 4 day in data set [2] was more than 100000 nM.

As to `Cc1ccc(-n2ccnc2[C@H](Cc2ccccc2)NC(=O)NS(=O)(=O)c2ccccc2C)cc1` [Example 13, (S)-2-methyl-N-((2-phenyl-1-(1-(p-tolyl)-1H-imidazol-2-yl)ethyl)carbamoyl)benzenesulfonamide], the EC50 in data set [1] (read-out: Activity) was less than 100 nM. The same compound gave a 50% cytotoxic concentration (CC50) at 4 day in data set [2] of more than 100000 nM.

As for `Cc1ccccc1S(=O)(=O)NC(=O)N[C@@H](Cc1ccccc1)c1nccn1-c1ccc(Cl)cc1` [Example 14, (S)-N-((1-(1-(4-chlorophenyl)-1H-imidazol-2-yl)-2-phenylethyl)carbamoyl)-2-methylbenzenesulfonamide], in data set [1] (read-out: Activity), the EC50 is 100 to 1000 nM. The compound further yielded a CC50 at 4 day in data set [2] of more than 100000 nM.

In the case of `Cc1ccccc1S(=O)(=O)NC(=O)N[C@@H](Cc1ccccc1)c1nccn1-c1ccc(Br)cc1` [Example 15, (S)-N-((1-(1-(4-bromophenyl)-1H-imidazol-2-yl)-2-phenylethyl)carbamoyl)-2-methylbenzenesulfonamide], the values for the EC50 in data set [1] (read-out: Activity) and in data set [1] (read-out: EC50) were 100 to 1000 nM and 190 nM, respectively. The same compound registered a CC50 at 4 day in data set [2] of more than 100000 nM.

With `COc1ccccc1-n1ccnc1[C@H](Cc1ccccc1)NC(=O)NS(=O)(=O)c1ccccc1C` [Example 16, (S)-N-((1-(1-(2-methoxyphenyl)-1H-imidazol-2-yl)-2-phenylethyl)carbamoyl)-2-methylbenzenesulfonamide], in data set [1] (read-out: Activity), the EC50 was more than 1000 nM. Also, the CC50 at 4 day in data set [2] is more than 100000 nM.

For the compound `C=CCOc1cccc(-n2ccnc2[C@H](Cc2ccccc2)NC(=O)NS(=O)(=O)c2ccccc2C)c1` [Example 17, (S)-N-((1-(1-(3-(allyloxy)phenyl)-1H-imidazol-2-yl)-2-phenylethyl)carbamoyl)-2-methylbenzenesulfonamide], the EC50 in data set [1] (read-out: Activity) was 100 to 1000 nM. In addition, in data set [2], the cytotoxic concentration (CC50) at 4 day was more than 33000 nM.

With `Cc1ccccc1S(=O)(=O)NC(=O)N[C@@H](Cc1ccccc1)c1nccn1-c1ccc2c(c1)CCO2` [Example 18, (S)-N-((1-(1-(2,3-dihydrobenzofuran-5-yl)-1H-imidazol-2-yl)-2-phenylethyl)carbamoyl)-2-methylbenzenesulfonamide], the EC50 was less than 100 nM in data set [1] (read-out: Activity) and 10 nM in data set [1] (read-out: EC50). For the same compound, the 50% cytotoxic concentration (CC50) at 4 day in data set [2] was more than 100000 nM.

In the case of `Cc1ccccc1S(=O)(=O)NC(=O)N[C@@H](Cc1ccccc1)c1nccn1-c1cccc(OC(F)(F)F)c1` [Example 19, (S)-2-methyl-N-((2-phenyl-1-(1-(3-(trifluoromethoxy)phenyl)-1H-imidazol-2-yl)ethyl)carbamoyl)benzenesulfonamide], the EC50 in data set [1] (read-out: Activity) is 100 to 1000 nM. Besides, the half-maximal cytotoxic concentration (CC50) at 4 day in data set [2] was more than 33000 nM.

For `Cc1ccccc1S(=O)(=O)NC(=O)N[C@@H](Cc1ccccc1)c1nccn1-c1cccc(Br)c1` [Example 20, (S)-N-((1-(1-(3-bromophenyl)-1H-imidazol-2-yl)-2-phenylethyl)carbamoyl)-2-methylbenzenesulfonamide], the EC50 in data set [1] (read-out: Activity) was less than 100 nM. In addition, the CC50 at 4 day in data set [2] was more than 33000 nM.
